From patent publication US20240418703A1, “CULTURE MEDIUM FOR PRIMARY OVARIAN CANCER CELLS, CULTURE METHOD AND APPLICATION THEREOF” (PRECEDO PHARMACEUTICALS CO., LTD, priority 2021, published 2024)
Where two headings read alike, the source gives them in different places.

Columns and labels:
[1] = system: primary ovarian cancer cells; assay: Effect of single additives in Basal Medium on proliferation of primary ovarian cancer cells (cell counting); format: cell-based, human; set-up: key: +: compared with the Basal Medium, the culture medium added with the additive(s) has the effect of promoting the proliferation of two cases of primary ovarian cancer cells isolated from ovarian cancer tissue; −: the culture medium added with the additive(s) has the effect of promoting the proliferation of one case of primary ovarian cancer cells isolated from ovarian cancer tissue; the culture medium added with the additive(s) has no significant effect on the proliferation of at least two cases of primary ovarian cancer cells isolated from ovarian cancer tissue
Description: First, a Basal Medium containing initial medium was prepared. The initial medium may be selected from the group consisting of DMEM/F12, DMEM, F12, or RPMI-1640 commonly used in the art. In this example, the formulation of the Basal Medium is: DMEM/F12 medium (purchased from Corning)+100 μg/mL Primocin (purchased from InvivoGen, 0.2% (v/v), commercial product has a concentration of 50 mg/mL). Different types of additives (see Table 1) were added to the Basal Medium to prepare culture mediums for primary ovarian cancer cells with different components.
Tissue samples (intraoperative) of ovarian cancer solid tumor were obtained from patients by professional medical practitioner of professional medical institutions, and all patients have signed the informed consent. Intraoperative samples having the size of 0.25 cm^3, endoscopic samples having the size of 0.025 cm^3 were stored and transported using commercial tissue preservation solution (manufacturer: Miltenyi Biotec).
Tissue digestion solution: 1640 medium (Corning, 10-040-CVR), collagenase II (2 mg/mL), collagenase IV (2 mg/mL), DNase (50 U/mL), hyaluronidase (0.75 mg/mL), calcium chloride (3.3 mM), BSA (10 mg/mL).
• 3.1. Tissue samples were transferred from the ultra-clean workbench to a culture dish, and the tissue with blood was removed. The tissue samples were rinsed twice with Basal Medium, and then were transferred to another culture dish and mechanically cut with a sterile scalpel into tissue blocks of 1×1×1 mm^3 in size. • 3.2. The cut intraoperative tissues were aspirated into a 15 mL centrifuge tube, to which 5 mL of Basal Medium was added, fully mixed, and then centrifuged at 1500 rpm for 4 minutes. • 3.3. The supernatant was discarded, and the resultant was added with 1:3 mixture of Basal Medium and tissue digestion solution (the amount of tissue digestion solution added was about 10 mL tissue digestion solution for 1 g of tumor tissue). The samples were marked with names and numbers, sealed with sealing film, and then digested in a shaker (Zhichu Instrument ZQLY-180N) at 37° C., 300 rpm. The completion of digestion was determined via observation every 30 minutes, based on the existing of visible particles or not. The digestion time was 4 hours. • 3.4. After the digestion was completed, undigested tissue mass was filtered out through a […] filter mash. The tissue mass on the filter mash was rinsed into the centrifuge tube with Basal Medium to reduce cell loss. The resultant was centrifuged at 25° C., 1500 rpm for 4 minutes. • 3.5. […] If there were blood cells, 8 mL blood cell lysate (purchased from Sigma) was added in the resultant and fully mixed, lysed at 4° C. for 20 minutes, with inverting and mixing once during the process. The resultant was centrifuged at 25° C., 1500 rpm for 4 minutes. • 3.6. The supernatant was discarded and 2 mL Basal Medium was added to resuspend the cells for reserve.
• 4.1. Microscopic observation: a small amount of resuspended cells were plated in a culture dish, and the density and morphology of cancer cells were observed under a microscope (CNOPTEC, BDS400); • 4.2. Viable cell counting: 12 μL of the resuspended cell suspension was fully mixed with 12 μL of trypan blue staining solution (Sangon Biotech (Shanghai) Co., Ltd.), and then 20 μL of the mixture was added into a cell counting plate (Countstar, specifications: 50 pieces/box).
The primary ovarian cancer cells isolated from 2 cases of ovarian cancer tissues (numbered L40 and LQQ) according to the above step (2) were resuspended in the culture medium in Table 1, respectively and the cell number was counted. The Basal Medium was mixed with matrigel (Corning®, 356231) in a 50:1 ratio on ice. 300 μL of the mixture was plated and incubated in a 5% CO2 incubator at 37° C. for 25-35 minutes, preferably 30 minutes. The supernatant was discarded. […]

[2] = system: primary ovarian cancer cells; assay: Effect of different concentrations of added factors on proliferation of primary ovarian cancer cells (ratio to Blank Control); format: cell-based, human
[3] = additive in Basal Medium at the final concentration, samples L40 and LQQ, 7-10 days of culture, versus Basal Medium
[4] = factor added to the medium lacking it, FIGS. 2A-2L
[5] = samples A26083, L56, L62, FIGS. 2A-2L

| Molecule | Level of promoting proliferation [1, 3] | proliferation-promoting effect on primary ovarian cancer cells [2, 5] | other results |
| --- | --- | --- | --- |
| Cc1c[nH]c(-c2cnc(NCCNc3ccc(C#N)cn3)nc2-c2ccc(Cl)cc2Cl)n1 [CHIR99021, reference compound] | ○ |  |  |
| CN1C(=O)C(c2c(F)cccc2F)N(C)c2nc(Nc3ccc(S(N)(=O)=O)cc3)ncc21 (centres unmarked) [Compound 1, 4-((7-(2,6-Difluorophenyl)-5,8-dimethyl-6-oxo-5,6,7,8-tetrahydropteridin-2-yl)amino)benzsulfamide] | + | significant proliferation-promoting effect | concentration at which the cell proliferation effect is most significant [2, 4]: 5 µM |
| Cc1cccc(-c2nn(C(=S)Nc3ccccc3)cc2-c2ccnc3ccccc23)n1 [Compound A8301, A8301, reference compound] | ○ |  |  |
| C[C@@H](N)[C@H]1CC[C@H](C(=O)Nc2ccncc2)CC1 [Compound Y-27632, Y-27632, reference compound] | + | significant proliferation-promoting effect | concentration at which the cell proliferation effect is most significant [2, 4]: 5 µM |
| Oc1ccc(-c2nc(-c3ccncc3)c(-c3ccc(F)cc3)[nH]2)cc1 [SB202190, reference compound] | ○ |  |  |
| NC(=O)c1ccc(-c2nc(-c3ccc4c(c3)OCO4)c(-c3ccccn3)[nH]2)cc1 [SB431542, reference compound] | ○ |  |  |
| C[C@]12CCC(=O)C=C1CC[C@@H]1[C@@H]2[C@@H](O)C[C@@]2(C)[C@H]1CC[C@]2(O)C(=O)CO [hydrocortisone, reference compound] | ○ |  |  |
| NC(=O)c1cccnc1 [nicotinamide, reference compound] | ○ |  |  |
| CCCCC[C@H](O)/C=C/[C@H]1[C@H](O)CC(=O)[C@@H]1C/C=C\CCCC(=O)O [prostaglandin E2, reference compound] | − | significant proliferation-promoting effect | concentration at which the cell proliferation effect is most significant [2, 4]: 2.5 µM |
| CC(=O)C(=O)[O-].[Na+] [sodium pyruvate, reference compound] | ○ |  |  |
| basic fibroblast growth factor | ○ |  |  |
| cholera toxin |  |  | concentration at which the cell proliferation effect is most significant [2]: 0.1 µg/mL; more preferable amount according to the results of this example [2]: 0.05 to 0.2 µg/mL; preferable amount according to the results of this example [2]: 50 to 800 ng/mL; proliferation-promoting effect on primary ovarian cancer cells [2]: significant proliferation-promoting effect; Level of promoting proliferation [1]: + |
| epidermal growth factor | − | significant proliferation-promoting effect | preferable amount according to the results of this example ([2]; preferably, FIGS. 2A-2L): 2.5 to 40 ng/mL |
| hepatocyte growth factor | ○ |  |  |
| insulin | + | significant proliferation-promoting effect | concentration at which the cell proliferation effect is most significant [2, 4]: 9 µg/mL; more preferable amount according to the results of this example ([2]; more preferably, FIGS. 2A-2L): 3 to 9 µg/mL |
| insulin-like growth factor-1 | + | significant proliferation-promoting effect | concentration at which the cell proliferation effect is most significant [2, 4]: 0.05 µg/mL; preferable amount according to the results of this example ([2]; preferably, FIGS. 2A-2L): 25 to 100 ng/mL |
| neuregulin −1 | ○ |  |  |
| vitamin E [reference compound] | ○ |  |  |
| amphiregulin (protein, UniProt P15514 101-187, looked up, Amphiregulin, medium additive, supplier MCE) Amphiregulin: SVRVEQVVKPPQNKTESENTSDKPKRKKKGGKNGKNRRNRKKKNPCNAEFQNFCIHGECKYIEHLEAVTCKCQQEYFGERCGEKSMK | + | significant proliferation-promoting effect | concentration at which the cell proliferation effect is most significant [2, 4]: 0.003 µg/mL; preferable amount according to the results of this example ([2]; preferably, FIGS. 2A-2L): 1 to 81 ng/mL |
| fibroblast growth factors 7 (protein, UniProt P21781 32-194, looked up, medium additive, supplier R&D) Fibroblast growth factor 7: CNDMTPEQMATNVNCSSPERHTRSYDYMEGGDIRVRRLFCRTQWYLRIDKRGKVKGTQEMKNNYNIMEIRTVAVGIVAIKGVESEFYLAMNKEGKLYAKKECNEDCNFKELILENHYNTYASAKWTHNGGEMFVALNQKGIPVRGKKTKKEQKTAHFLPMAIT | ○ |  |  |
| human fibroblast growth factor −10 (protein, UniProt O15520 38-208, looked up, medium additive, supplier sino biological) Fibroblast growth factor 10: QALGQDMVSPEATNSSSSSFSSPSSAGRHVRSYNHLQGDVRWRKLFSFTKYFLKIEKNGKVSGTKKENCPYSILEITSVEIGVVAVKAINSNYYLAMNKKGKLYGSKEFNNDCKLKERIEENGYNTYASFNWQHNGRQMYVALNGKGAPRRGQKTRRKNTSAHFLPMVVHS | ○ |  |  |
| noggin (protein, UniProt Q13253 28-232, looked up, medium additive, supplier R&D) Noggin: QHYLHIRPAPSDNLPLVDLIEHPDPIFDPKEKDLNETLLRSLLGGHYDPGFMATSPPEDRPGGGGGAAGGAEDLAELDQLLRQRPSGAMPSEIKGLEFSEGLAQGKKQRLSKKLRRKLQMWLWSQTFCPVLYAWNDLGSRFWPRYVKVGSCFSKRSCSVPEGMVCKPSKSVHLTVLRWRCQRRGGQRCGWIPIQYPIISECKCSC | ○ |  |  |
| R-spondin1 (protein, UniProt Q2MKA7 21-263, looked up, medium additive, supplier R&D) R-spondin-1: SRGIKGKRQRRISAEGSQACAKGCELCSEVNGCLKCSPKLFILLERNDIRQVGVCLPSCPPGYFDARNPDMNKCIKCKIEHCEACFSHNFCTKCKEGLYLHKGRCYPACPEGSSAANGTMECSSPAQCEMSEWSPWGPCSKKQQLCGFRRGSEERTRRVLHAPVGDHAACSDTKETRRCTVRRVPCPEGQKRRKGGQGRRENANRNLARKESKEAGAGSRRRKGQQQQQQQGTVGPLTSAGPA | ○ |  |  |
